Test results from the supplement of paper PMC11061612.

Columns and labels:
[1] = tested on: B-CPAP (Thyroid Gland Carcinoma); experiment: Bliss excess, mean over the matrix (fraction); higher = more synergy
In short: (§1)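 Cell lines grown in DMEM/F12 or RPMI with 10% FBS were plated in 1536-well plates and held 24 hours at 37°C, 5% CO2 before 72 hours of exposure to two-drug dose matrices, with DMSO typically at 0.2%. CellTiter-Glo 2.0 luminescence gave viability, which was converted to inhibition. Vehicle wells were set to 0 and blank wells to 1. Combination Emax is the second-highest inhibition in the matrix, and Bliss excess is the observed combination effect minus the expected EA + EB − EA·EB, where EA and EB are the single-agent effects.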

[2] = tested on: HCC1806 (Breast Carcinoma); experiment: as above
In short: as §1

[3] = tested on: MFE-296 (Endometrial Carcinoma); experiment: as above
In short: as §1

[4] = tested on: OVCA420 (Ovarian Carcinoma); experiment: as above
In short: as §1

[5] = tested on: SNU-5 (Gastric Carcinoma); experiment: as above
In short: as §1

[6] = tested on: B-CPAP (Thyroid Gland Carcinoma); experiment: combination Emax (second highest fraction inhibited in the dose matrix, 72 h); higher = more inhibition; extreme values may be limits of the assay
In short: as §1

[7] = tested on: Calu-3 (Lung Adenocarcinoma); experiment: as above
In short: as §1

[8] = tested on: DoTc2-4510 (Cervical Carcinoma); experiment: as above
In short: as §1

[9] = tested on: HCC-78 (Lung Adenocarcinoma); experiment: as above
In short: as §1

[10] = tested on: HCC1806 (Breast Carcinoma); experiment: as above
In short: as §1

[11] = tested on: ME-1 (Acute Myeloid Leukemia); experiment: as above
In short: as §1

[12] = tested on: MFE-296 (Endometrial Carcinoma); experiment: as above
In short: as §1

NB10 (Neuroblastoma) = experiment: as above
In short: as §1

[13] = tested on: OVCA420 (Ovarian Carcinoma); experiment: as above
In short: as §1

[14] = tested on: RO82-W-1 (Thyroid Gland Carcinoma); experiment: as above
In short: as §1

[15] = tested on: SNU-5 (Gastric Carcinoma); experiment: as above
In short: as §1

[16] = tested on: TE-15 (Esophageal Squamous Cell Carcinoma); experiment: as above
In short: as §1

[17] = tested on: TE-9 (Esophageal Squamous Cell Carcinoma); experiment: as above
In short: as §1
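Wherever Bliss excess, mean over the matrix is given: after 72 h of two-drug dosing.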

| Structure (SMILES) | Bliss excess [1] | Bliss excess [2] | Bliss excess [3] | Bliss excess [4] | Bliss excess [5] | combination Emax [6] | combination Emax [7] | combination Emax [8] | combination Emax [9] | combination Emax [10] | combination Emax [11] | combination Emax [12] | combination Emax (NB10 (Neuroblastoma)) | combination Emax [13] | combination Emax [14] | combination Emax [15] | combination Emax [16] | combination Emax [17] |
| --- | --- | --- | --- | --- | --- | --- | --- | --- | --- | --- | --- | --- | --- | --- | --- | --- | --- | --- |
| CS(=O)(=O)CCNCc1ccc(-c2ccc3ncnc(Nc4ccc(OCc5cccc(F)c5)c(Cl)c4)c3c2)o1 [Lapatinib] + NC1(c2ccc(-c3nc4ccn5c(=O)[nH]nc5c4cc3-c3ccccc3)cc2)CCC1 [MK-2206] (first compound max 10 µM, 7x7, partner max 10 µM) | 0.0102 | 0.0574 | -0.026 | 0.0085 | 0.0404 | 0.909 | 0.954 | 0.888 | 0.264 | 0.954 | 0.301 | 0.296 | 0.903 | 0.884 | 0.24 | 0.387 | 0.831 | 0.306 |
| C=CCn1c(=O)c2cnc(Nc3ccc(N4CCN(C)CC4)cc3)nc2n1-c1cccc(C(C)(C)O)n1 [AZD1775] + CCc1c2c(nc3ccc(O)cc13)-c1cc3c(c(=O)n1C2)COC(=O)[C@]3(O)CC [SN-38] (first compound max 1 µM, partner max 0.3 µM) |  |  |  |  |  |  | 0.786 | 0.92 | 0.954 |  | 0.597 |  | 0.853 |  | 0.263 |  | 0.939 | 0.496 |
| CN(CCO)CC[C@H](CSc1ccccc1)Nc1ccc(S(=O)(=O)NC(=O)c2ccc(N3CCC([C@@H](O)c4ccccc4-c4ccc(Cl)cc4)CC3)cc2)cc1S(=O)(=O)C(F)(F)F [AZD4320] + CC(=O)O[C@H]1C(=O)[C@@]2(C)[C@H]([C@H](OC(=O)c3ccccc3)[C@]3(O)C[C@H](OC(=O)[C@H](O)[C@@H](NC(=O)c4ccccc4)c4ccccc4)C(C)=C1C3(C)C)[C@]1(OC(C)=O)CO[C@@H]1C[C@@H]2O [Paclitaxel] (first compound max 1 µM, 7x7, partner max 3 µM) |  |  |  |  |  |  | 0.76 | 0.992 | 0.803 |  | 1 |  | 0.912 |  | 0.947 |  | 0.992 | 0.931 |
| N#Cc1cnc(Nc2cc(NC[C@H]3CNCCO3)c(C(F)(F)F)cn2)cn1 [SRA737] + O=c1[nH]cc(F)c(=O)[nH]1 [5-Fluorouracil] (first compound max 10 µM, 7x7, partner max 20 µM) |  |  |  |  |  |  | 0.213 | 0.231 | 0.819 |  | 0.471 |  | 0.53 |  | 0.144 |  | 0.705 | 0.469 |
| N#Cc1cnc(Nc2cc(NC[C@H]3CNCCO3)c(C(F)(F)F)cn2)cn1 [SRA737] + Nc1ccn([C@@H]2O[C@H](CO)[C@@H](O)C2(F)F)c(=O)n1 [Gemcitabine] (first compound max 10 µM, 7x7, partner max 0.3 µM) |  |  |  |  |  |  | 0.67 | 0.803 | 0.906 |  | 0.66 |  | 0.946 |  | 0.212 |  | 0.923 | 0.52 |
| C[C@@H](Oc1cc(-c2cnn(C3CCNCC3)c2)cnc1N)c1c(Cl)ccc(F)c1Cl [Crizotinib] + Cn1cnc2c(F)c(Nc3ccc(Br)cc3Cl)c(C(=O)NOCCO)cc21 [Selumetinib] (first compound max 10 µM, 7x7, partner max 10 µM) |  |  |  |  |  |  | 0.172 | 0.292 | 0.637 |  | 0.458 |  | 0.872 |  | 0.197 |  | 0.406 | 0.167 |
| O=C(c1cc(Cc2n[nH]c(=O)c3ccccc23)ccc1F)N1CCN(C(=O)C2CC2)CC1 [Olaparib] + CN(CC[C@H](CSC1=CC=CC=C1)NC2=C(C=C(C=C2)S(=O)(=O)NC(=O)C3=CC=C(C=C3)N4CCC(CC4)[C@H](C5=CC=CC=C5C6=CC=C(C=C6)Cl)O)S(=O)(=O)C(F)(F)F)CCO [AZD4320] (first compound max 10 µM, 7x7, partner max 1 µM) |  |  |  |  |  |  | 0.257 | 0.668 | 0.241 |  | 1 |  | 0.389 |  | 0.546 |  | 0.22 | 0.321 |
| O=C(c1cc(Cc2n[nH]c(=O)c3ccccc23)ccc1F)N1CCN(C(=O)C2CC2)CC1 [Olaparib] + Cc1c2c(nn1C)CSCc1cc(n(C)n1)CSc1cc(c3ccccc3c1)OCCCc1c(C(=O)O)n(C)c3c-2c(Cl)ccc13 [AZD5991] (first compound max 10 µM, 7x7, partner max 1 µM) |  |  |  |  |  |  | 0.0927 | 0.224 | 0.13 |  | 0.551 |  | 0.437 |  | 0.147 |  | 0.29 | 0.202 |
| CN(CCO)CC[C@H](CSc1ccccc1)Nc1ccc(S(=O)(=O)NC(=O)c2ccc(N3CCC([C@@H](O)c4ccccc4-c4ccc(Cl)cc4)CC3)cc2)cc1S(=O)(=O)C(F)(F)F [AZD4320] + Nc1ccn([C@@H]2O[C@H](CO)[C@@H](O)C2(F)F)c(=O)n1 [Gemcitabine] (first compound max 1 µM, 7x7, partner max 0.3 µM) |  |  |  |  |  |  | 0.624 | 0.882 | 0.852 |  | 1 |  | 0.858 |  | 0.572 |  | 0.994 | 0.518 |
| CN(CCO)CC[C@H](CSc1ccccc1)Nc1ccc(S(=O)(=O)NC(=O)c2ccc(N3CCC([C@@H](O)c4ccccc4-c4ccc(Cl)cc4)CC3)cc2)cc1S(=O)(=O)C(F)(F)F [AZD4320] + CS(=O)(=O)CCNCc1ccc(-c2ccc3ncnc(Nc4ccc(OCc5cccc(F)c5)c(Cl)c4)c3c2)o1 [Lapatinib] (first compound max 1 µM, 7x7, partner max 10 µM) |  |  |  |  |  |  | 0.989 | 0.974 | 0.238 |  | 1 |  | 0.705 |  | 0.646 |  | 0.761 | 0.931 |
